Target: T1, iRFP713 (Rhodopseudomonas palustris, UniProt G1FNL7, C15S)
T1 construct: gene iRFP; N-terminal polyhistidine tag; E. coli LMG194 with heme oxygenase; dimer
Test: zinc-staining SDS-PAGE, absorption/fluorescence spectra, GdnHCl unfolding
Conditions: noncovalent; GAF pocket; no BV-binding Cys

C=CC1=C(C)C(=Cc2[nH]c(C=C3N=C(C=C4NC(=O)C(C)=C4C=C)C(C)=C3CCC(=O)O)c(CCC(=O)O)c2C)NC1=O [biliverdin IXα]
zinc-staining SDS-PAGE, absorption/fluorescence spectra, GdnHCl unfolding: BV was the most weakly associated with NIR FP variants having no Cys residues

Source: PMC4698714, “Allosteric effects of chromophore interaction with dimeric near-infrared fluorescent proteins engineered from bacterial phytochromes” (Scientific Reports, 2016)
